For this series the following is noted: Crystal; DSC.

The values that follow come from the NIST ThermoML archive (doi:10.1021/acs.jced.8b01144).

Numbers after ± are expanded uncertainties.

`NC(=O)c1ccc(N)cc1` [4-aminobenzamide]: the Triple point temperature is given as 453.4 ± 1.2 K.
